For the data set, the system named is membrane preparation from dog kidney cortex. Kind of data set: Inactivation by membrane preparation from dog kidney cortex. In kind it is in vitro ADME. The source says: A unique proteolytic product separated by HPLC on a reverse phase column appears as a single peak which elutes prior to the intact peptide.

Take `CC[C@H](C)[C@@H]1NC(=O)[C@H](CCCNC(=N)N)NC(=O)[C@H](CC(=O)O)NC(=O)[C@H](CCSC)NC(=O)[C@H](CCCNC(=N)N)NC(=O)CNC(=O)CNC(=O)[C@H](Cc2ccccc2)NC(=O)[C@@H](NC(=O)[C@H](CO)NC(=O)[C@H](CO)NC(=O)[C@H](CCCNC(=N)N)NC(=O)[C@H](CCCNC(=N)N)NC(=O)[C@H](CC(C)C)NC(=O)[C@@H](N)CO)CSSC[C@@H](C(=O)N[C@@H](CC(N)=O)C(=O)N[C@@H](CO)C(=O)N[C@@H](Cc2ccccc2)C(=O)N[C@@H](CCCNC(=N)N)C(=O)N[C@@H](Cc2ccc(O)cc2)C(=O)O)NC(=O)CNC(=O)[C@H](CC(C)C)NC(=O)CNC(=O)[C@H](CO)NC(=O)[C@H](CCC(N)=O)NC(=O)[C@H](C)NC(=O)CNC1=O` [ANF-(99-126)]: the “position of the inactivating cleavage of the ring structure” value is “between Cys-105 and Phe-106”.

The values above are taken from US5665861A, “Cardiodilatin fragment, process for preparing same and use thereof” (HaemoPep Pharma GmbH, priority 1987, dated 1997).
